Measured values reported in patent US20020081684A1, “Method and nucleotide sequence for transforming microorganisms” (priority 1995, published 2002).

Assays:
[1] = biological target: T1, L-malic acid carrier in S. pombe (Schizosaccharomyces pombe, UniProt P50537); details: Sousa et al. (1992); cited from earlier work
T1 construct: host or cells: S. pombe cells (per the assay title)
T1 sequence (P50537 1-438): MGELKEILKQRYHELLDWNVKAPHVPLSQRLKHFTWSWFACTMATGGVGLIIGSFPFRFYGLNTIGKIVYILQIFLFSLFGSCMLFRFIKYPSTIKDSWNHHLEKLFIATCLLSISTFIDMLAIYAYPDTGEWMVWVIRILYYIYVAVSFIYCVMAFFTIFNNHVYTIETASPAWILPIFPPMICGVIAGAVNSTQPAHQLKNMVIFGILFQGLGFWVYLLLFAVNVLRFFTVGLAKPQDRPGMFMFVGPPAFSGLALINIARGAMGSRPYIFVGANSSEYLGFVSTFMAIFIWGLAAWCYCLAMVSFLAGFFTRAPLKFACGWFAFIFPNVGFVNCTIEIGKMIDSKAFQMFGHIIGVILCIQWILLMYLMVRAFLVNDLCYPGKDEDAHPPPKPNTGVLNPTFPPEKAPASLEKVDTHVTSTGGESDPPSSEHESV

S. pombe Mae1 permease = biological target: T2, S. pombe Mae1 permease (Schizosaccharomyces pombe, UniProt P50537); assay: Transport assays for 14C-labelled L-malic, succinic, malonic and α-ketoglutaric acids in S. pombe wild-type, mae1- mutant and complemented mutant; assay type: cell-based; details: 14C-labelled acid, 0.1 M KCl pH 3.5, 30° C.
T2 construct: endogenous in cells; host or cells: S. pombe 972 leu1-32 h- (wild type); also the mae1- mutant complemented with the 3.4 kb SmaI genomic mae1 fragment in pRS315
T2 sequence (P50537 1-438): T1 sequence (P50537 1-438)
Experimental: Yeast cells in the logarithmic growth phase (OD of 1.2 at A595) were harvested and washed three times with 0.1 M KCI (pH 3.5). The cells were resuspended in 4 ml 0.1 M KCI (pH 3.5) and stored at 4° C. Transport assays were completed within 3 h. The cell suspensions were pre-incubated for 5 min in a shaker water bath at 30° C. at 100 rpm. Assays were initiated by adding 25 μl of ^14C-labelled L malate (45 μCi/μmol) (Amersham), 100 μl of succinic acid (42 μCi/μmol) (ICN), 100 μl malonic add (56.7 μCi/μmol) (Du Pont) or 100 μl a-ketoglutarate (51.8 μCi/μmol) (Du Pont). A 0.5-ml sample was withdrawn at 10, 20, 40, 60, and 120 sec intervals, rapidly filtered through 0.45 μm membranes (Mllipore Corporation, Bedford, Mass.), and immediately washed three times with 5 ml amounts of ice-cold 0.1 M KCI (pH 3.5). Filters containing the cells were oven-dried at 50° C. and placed in scintillation vials containing 5 ml of scintillation reaction mixture (Boehringer Mannheim, Mannheim, Germany). Pre-boiled (5 min) cells were used to determine non-specific binding of [^14C] malate, succinate, malonate and α-ketoglutarate to the yeast cells.

Compound: O=C(O)/C=C/C(=O)O [fumaric acid]
- inhibition of initial uptake rates of L-malic acid [1]: competitive inhibition

Compound: O=C(O)CC(=O)C(=O)O [oxaloacetic acid]
- inhibition of initial uptake rates of L-malic acid [1]: competitive inhibition

Compound: O=C(O)C[C@H](O)C(=O)O [L-malic acid]
- transport in the mae1-mutant complemented with the 3.4kb Sma1 fragment containing the mae1 gene (S. pombe Mae1 permease): fully restored

Compound: O=C(O)CCC(=O)O [succinic acid]
- transport in the mae1-mutant complemented with the 3.4kb Sma1 fragment containing the mae1 gene (S. pombe Mae1 permease): fully restored
- inhibition of initial uptake rates of L-malic acid [1]: competitive inhibition

Compound: O=C(O)/C=C\C(=O)O [maleic acid]
- inhibition of initial uptake rates of L-malic acid [1]: competitive inhibition

Compound: O=C(O)CC(=O)O [malonic acid]
- transport in the mae1-mutant complemented with the 3.4kb Sma1 fragment containing the mae1 gene (S. pombe Mae1 permease): fully restored
- inhibition of initial uptake rates of L-malic acid [1]: competitive inhibition

Compound: O=C(O)C[C@@H](O)C(=O)O [D-malic acid]
- inhibition of initial uptake rates of L-malic acid [1]: competitive inhibition
